Laboratory results reported in patent publication US20040214832A1, “Piperazine derivative renin inhibitors” (priority 2003, published 2004).

biological target: T1, human renin (Homo sapiens, UniProt P00797); test: Determination of renin IC50 by tGFP FRET assay; format: biochemical; settings: Human recombinant renin, tandem GFP substrate 650 nM, 60 min incubation with compound, pH 7.4, 11-point curve
T1 sequence (P00797 67-406): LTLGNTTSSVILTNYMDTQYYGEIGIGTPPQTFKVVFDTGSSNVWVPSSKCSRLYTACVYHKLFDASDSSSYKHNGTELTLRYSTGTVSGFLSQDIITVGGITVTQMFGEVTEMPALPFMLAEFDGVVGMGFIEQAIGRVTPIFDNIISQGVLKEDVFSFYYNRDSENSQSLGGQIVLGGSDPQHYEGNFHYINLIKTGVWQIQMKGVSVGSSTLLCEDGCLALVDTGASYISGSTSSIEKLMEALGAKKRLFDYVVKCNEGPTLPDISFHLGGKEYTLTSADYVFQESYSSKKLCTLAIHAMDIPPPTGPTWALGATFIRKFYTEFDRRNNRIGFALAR
Text: Determination of Renin IC50 by tGFP FRET Assay
The tGFP FRET (fluorescence resonance energy transfer) assay utilizes a tandem GFP substrate (60 kDa, Discovery Technologies) containing nine amino acid recognition sequences for human renin flanked by two GFP proteins. The assay is used to determine the ability of a compound to act as an inhibitor of renin enzymatic activity by determination of that concentration of test compound that inhibits by 50% (IC50) the ability of renin to cleave the tandem GFP substrate. The IC50 values are determined over an 11-point curve at concentrations of 100 μM to 1 pM. Each compound concentration used to construct the curve was dependent on renin inhibitor potency. For example, subnanomolar IC50 values were determined over an 11-point curve at concentrations of 10 μM to 1 pM. All other IC50 values were determined over an 11-point curve at concentrations of 100 μM to 0.0065 μM. The concentrations were achieved by diluting a 9.1 nM stock of Human recombinant renin in the appropriate amount of buffer containing 50 mM HEPES, 1 mM EDTA, 1% PEG (8000 MW), 1 mM DTT, 0.1% BSA, pH 7.4 to achieve the final concentration of 50.4 μIU. The tGFP substrate stock solution of 43 μM was diluted with the appropriate amount of the above buffer to obtain the final concentration of 650 nM. In addition, 1 μl of the compound is diluted in dimethylsulfoxide (DMSO) to represent an […] log scale (5% final). The SR renin and compound are added to a 384 capacity plate by an automated robot (BIOMEK). The plate is incubated for 60 minutes; upon completion the tGFP substrate is added.
The IC50 is determined by monitoring the increase in […] at 432/432 nm excitation, 530/475 nm emission with a cutoff at 515/455 nm, in a fluorometric plate reader.

| SMILES | IC50 |
| --- | --- |
| COc1ccccc1CCOCCOc1ccc(N2CCNC[C@@H]2COc2ccc3ccccc3c2)cc1 [Example 104] | 1070 nM |
| COc1ccccc1COCCCOc1ccc(N2C(=O)CNC[C@@H]2COc2ccc(-c3ccccc3)cc2)cc1 [Example 92, (6R)-6-(biphenyl-4-yloxymethyl)-1-(4-[3-(2-methoxybenzyloxy)-propoxy]-phenyl)-piperazin-2-one] | 2520 nM |
| COc1ccccc1COCCCOc1ccc(N2C(=O)CNC[C@@H]2COCc2cccnc2)cc1 [Example 23, (6R)-1-{4-[3-(2-methoxybenzyloxy)-propoxy]-phenyl}-6-(pyridin-3-ylmethoxymethyl)-piperazin-2-one] | 117 nM |
| COC(=O)CN1C(=O)CCc2ccc(OC[C@H]3CNCC(=O)N3c3ccc(OCCCOCc4ccccc4OC)cc3)cc21 [Example 116, [7-([2R]-1-{4-[3-(2-Methoxybenzyloxy)-propoxy]-phenyl}-6-oxopiperazin-2-ylmethoxy)-2-oxo-3,4-dihydro-2H-quinolin-1-yl]-acetic acid methyl ester] | 4 nM |
| COc1ccccc1COCCCOc1ccc(N2C(=O)CNC[C@@H]2COc2cccc(-c3ccccc3)c2)cc1 [Example 106, (6R)-6-(biphenyl-3-yloxymethyl)-1-{4-[3-(2-methoxybenzyloxy)-propoxy]-phenyl}-piperazin-2-one] | 1510 nM |
| COc1ccccc1COCCCOc1ccc(N2C(=O)CNC[C@@H]2COc2ccc(NC(C)=O)cc2)cc1 [Example 93, N-[4-([2R]-1-{4-[3-(2-methoxybenzyloxy)-propoxy]-phenyl}-6-oxopiperazin-2-ylmethoxy)-phenyl]-acetamide] | > 1000 nM |
| COc1ccc(COC[C@H]2CNCC(=O)N2c2ccc(OCCCOCc3ccccc3OC)cc2)cc1 [Example 12, (6R)-6-(4-methoxybenzyloxymethyl)-1-{4-[3-(2-methoxybenzyloxy)-propoxy]-phenyl}-piperazin-2-one] | 3860 nM |
| COc1ccccc1COCCCOc1ccc(N2C(=O)CNC[C@@H]2COCc2ccc(C(F)(F)F)cc2)cc1 [Example 13, (6R)-1-{4-[3-(2-methoxybenzyloxy)-propoxy]-phenyl}-6-(4-trifluoromethylbenzyloxymethyl)-piperazin-2-one] | 68 nM |
| COc1ccccc1COCCCOc1ccc(N2C(=O)CNC[C@@H]2COc2ccc3c(c2)N(CCNC(C)=O)CCC3)cc1 [Example 124, N-{2-[7-([2R]-1-{4-[3-(2-Methoxybenzyloxy)-propoxy]-phenyl}-6-oxopiperazin-2-ylmethoxy)-3,4-dihydro-2H-quinolin-1-yl]-ethyl}-acetamide] | 0.35 nM |
| COc1ccccc1COCCCOc1ccc(N2C(=O)CNC[C@@H]2CNC(=O)c2ccccc2F)cc1 [Example 86, 2-fluoro-N-([2R]-1-{4-[3-(2-methoxybenzyloxy)-propoxy]-phenyl}-6-oxopiperazin-2-ylmethyl)-benzamide] | > 1000 nM |
| COc1ccccc1COCCCOc1ccc(N2C(=O)CNC[C@@H]2COc2ccc3c(ccn3CCNC(C)=O)c2)cc1 [Example 120, N-{2-[5-([2R]-1-{4-[3-(2-Methoxybenzyloxy)-propoxy]-phenyl}-6-oxopiperazin-2-ylmethoxy)-indol-1-yl]-ethyl}-acetamide] | 4.66 nM |
| O=C(NCCc1ccccc1)c1ccc(N2C(=O)CNC[C@@H]2COc2ccc3ccccc3c2)cc1 [Example 47, 4-[(2R)-2-(naphthalen-2-yloxymethyl)-6-oxopiperazin-1-yl]-N-phenethylbenzamide] | > 1000 nM |
| COc1ccccc1COCCCOc1ccc(N2C(=O)CNC[C@@H]2COCc2ccc(F)cc2)cc1 [Example 8, (6R)-6-(4-fluorobenzyloxymethyl)-1-{4-[3-(2-methoxybenzyloxy)-propoxy]-phenyl}-piperazin-2-one] | 454 nM |
| COc1ccccc1COCCCOc1ccc(N2C(=O)CNC[C@@H]2COCc2ccc(Cl)cc2)cc1 [Example 5, (6R)-6-(4-chlorobenzyloxymethyl)-1-{4-[3-(2-methoxybenzyloxy)-propoxy]-phenyl}-piperazin-2-one] | 295 nM |
| COc1ccccc1COCCCOc1ccc(N2CCNC[C@@H]2COc2ccc3c(c2)N(CCNC(C)=O)CCC3)cc1 [Example 125, N-{2-[7-([2R]-1-{4-[3-(2-Methoxybenzyloxy)-propoxy]-phenyl}-piperazin-2-ylmethoxy)-3,4-dihydro-2H-quinolin-1-yl]-ethyl}-acetamide] | 0.53 nM |
| CCOCCNC(=O)c1ccc(N2C(=O)CNC[C@@H]2COc2ccc3ccccc3c2)cc1 [Example 49, N-(2-ethoxyethyl)-4-[(2R)-2-(naphthalen-2-yloxymethyl)-6-oxopiperazin-1-yl]-benzamide] | > 1000 nM |
| COc1ccccc1OCCCOCc1ccc(N2C(=O)CNC[C@@H]2COCc2ccc(F)cc2)cc1 [Example 76, (6R)-6-(4-fluorobenzyloxymethyl)-1-{4-[3-(2-methoxyphenoxy)-propoxymethyl]-phenyl}-piperazin-2-one] | > 1000 nM |

Now from value to compound:

| IC50 | SMILES |
| --- | --- |
| 37 nM | COc1ccccc1COCCCOc1ccc(N2C(=O)CNC[C@@H]2COc2ccc3c(c2)N(CCCO)CCC3)cc1 [Example 44, (6R)-6-[1-(3-hydroxypropyl)-1,2,3,4-tetrahydroquinolin-7-yloxymethyl]-1-{4-[3-(2-methoxybenzyloxy)-propoxy]-phenyl}-piperazin-2-one] |
| 4.09 nM | COC(=O)CN1CCCc2ccc(OC[C@H]3CNCC(=O)N3c3ccc(OCCCOCc4ccccc4OC)cc3)cc21 [Example 110, {7-[(2R)-1-{4-[3-(2-Methoxybenzyloxy)-propoxy]-phenyl}-6-oxopiperazin-2-ylmethoxy]-3,4-dihydro-2H-quinolin-1-yl}-acetic acid methyl ester] |
| 3840 nM | COCCCOc1cc(N2C(=O)CNC[C@@H]2COc2ccc3ccccc3c2)ccc1OC [Example 48, (6R)-1-[4-methoxy-3-(3-methoxypropoxy)-phenyl]-6-(naphthalen-2-yloxymethyl)-piperazin-2-one] |
| 10 nM | COC(=O)Cn1ccc2cc(OC[C@@H]3CNCC(=O)N3c3ccc(OCCCOCc4ccccc4OC)cc3)ccc21 [Example 113, [5-([2S]-1-{4-[3-(2-Methoxybenzyloxy)-propoxy]-phenyl}-6-oxopiperazin-2-ylmethoxy)-indol-1-yl]-acetic acid methyl ester] |
| 9 nM | CCC(=O)OCCN1CCCc2ccc(OC[C@H]3CNCC(=O)N3c3ccc(OCCCOCc4ccccc4OC)cc3)cc21 [Example 123, Propionic acid 2-[7-([2R]-1-{4-[3-(2-methoxybenzyloxy)-propoxy]-phenyl}-6-oxopiperazin-2-ylmethoxy)-3,4-dihydro-2H-quinolin-1-yl]-ethyl ester] |
| > 1000 nM | COc1ccccc1COCCCOc1ccc(N2C(=O)CNC[C@@H]2COC(=O)c2ccc(C)cc2)cc1 [Example 59, 4-methyl-benzoic acid (2R)-1-{4-[3-(2-methoxybenzyloxy)-propoxy]-phenyl}-6-oxopiperazin-2-yl methyl ester] |
| 528 nM | COc1ccccc1COCCCOc1ccc(N2C(=O)CNC[C@@H]2COc2ccc3ccncc3c2)cc1 [Example 51, (6R)-6-(isoquinolin-7-yloxymethyl)-1-{4-[3-(2-methoxybenzyloxy)-propoxy]-phenyl}-piperazin-2-one] |
| > 1000 nM | COc1ccccc1COCCCOc1ccc(N2C(=O)CNC[C@@H]2COCc2ccc(F)c(C)c2)cc1 [Example 27, (6R)-6-(4-fluoro-3-methylbenzyloxymethyl)-1-{4-[3-(2-methoxybenzyloxy)-propoxy]-phenyl}-piperazin-2-one] |
| > 1000 nM | COc1ccccc1COCCCOc1ccc(N2C(=O)CNC[C@@H]2COC(=O)c2ccc3ccccc3c2)cc1 [Example 58, naphthalene-2-carboxylic acid (2R)-1-{4-[3-(2-methoxybenzyloxy)-propoxy]-phenyl}-6-oxopiperazin-2-yl methyl ester] |
| > 1000 nM | COc1ccc(COCCCOc2ccc(N3CCNC[C@@H]3COCc3ccc(OC)cc3)cc2)cc1 [Example 65, (2R)-2-(4-methoxybenzyloxymethyl)-1-{4-[3-(4-methoxybenzyloxy)-propoxy]-phenyl}-piperazine] |
| 246 nM | COc1ccccc1COCCCOc1ccc(N2C(=O)CNC[C@@H]2COCc2ccc(F)c(F)c2)cc1 [Example 4, (6R)-6-(3,4-difluorobenzyloxymethyl)-1-{4-[3-(2-methoxybenzyloxy)-propoxy]-phenyl}-piperazin-2-one] |
